# Molecular target: T1, human Keap1 kelch domain (amino acids Ala321 -Thr609) (Homo sapiens, UniProt Q14145)
# T1 construct: human Keap1 kelch domain (amino acids Ala321 -Thr609)
# Test: Keap1-Nrf2 peptide binding assay (fluorescence polarisation)
# Settings: Keap1 kelch domain 20 nM, fluorescently labeled Nrf2 peptide 50 nM
# Method: A fluorescence polarisation assay was used to measure binding of the human Keap1 kelch domain (amino acids Ala321 -Thr609) to a fluorescently labeled peptide containing a Keap1 binding site of human Nrf2 (Alexa633-AFFAQLQLDEETGEFL; JPT Technologies, Berlin, Germany). Two microliters of test compound in reaction buffer (phosphate-buffered saline, 2 mM DL-dithiothreitol, 0.015 % (v/v) Brij-35) containing 6 % (v/v) DMSO were mixed with two microliters of the Keap1 kelch domain in reaction buffer in a black 384-well small volume microtiter plate and incubated at ambient temperature for 15 minutes. Thereafter, two microliters were added of the fluorescently labeled Nrf2 peptide in reaction buffer, and the mixture was incubated for a further 30 minutes at ambient temperature. Final concentrations of the Keap1 kelch domain and the fluorescently labeled Nrf2 peptide were 20 nM and 50 nM, respectively.
# Fluorescence polarization (FP) was measured at excitation and emission wavelengths of 635 nm and 660 nm, respectively. Positive controls for binding (two microliters of reaction buffer containing 6 % (v/v) DMSO instead of test compound in the same buffer) and negative controls (as positive controls, but without Keap1 kelch domain) were included on each microtiter plate. Data were expressed as percent-inhibition values: percent inhibition = 100⋅(1(|FPcompound-FPnegative control|)/(|FPpositive control-FPnegative control|)) [formula]
# IC50 values were determined by testing different compound concentrations and fitting the resulting percent-inhibition values to the following equation using XLFit4: percent inhibition = A + (B-A)/(1 + (((IC50)/([Compound])))^D) [formula]
# Parameter A was set to zero, pre-fit values for parameters B and D were set to 100 and 1, respectively.
# T1 sequence (Q14145 321-609): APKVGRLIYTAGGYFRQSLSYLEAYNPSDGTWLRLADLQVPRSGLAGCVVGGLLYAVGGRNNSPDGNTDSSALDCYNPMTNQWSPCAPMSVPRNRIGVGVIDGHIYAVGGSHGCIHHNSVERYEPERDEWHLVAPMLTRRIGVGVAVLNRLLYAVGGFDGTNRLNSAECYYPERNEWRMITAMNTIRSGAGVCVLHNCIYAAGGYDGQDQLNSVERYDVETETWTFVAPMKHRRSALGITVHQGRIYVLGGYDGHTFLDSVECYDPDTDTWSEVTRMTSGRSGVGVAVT
row,SMILES,IC50
1,"Cc1cc(C)c(C)c(S(=O)(=O)Nc2cc(-c3ccc(C(=O)O)cc3)cc3ccccc23)c1C [Example 1, 4-[4-[(2,3,5,6-tetramethylphenyl)sulfonylamino]-2-naphthyl]benzoic acid]",2.5 µM
2,"Cc1cc(C)c(C)c(S(=O)(=O)Nc2cc(-c3cccc(C(=O)O)c3)cc3ccccc23)c1C [Example 4, 3-[4-[(2,3,5,6-tetramethylphenyl)sulfonylamino]-2-naphthyl]benzoic acid]",1.5 µM
3,"CC(=O)Nc1cc(C(=O)O)cc(-c2cc(NS(=O)(=O)c3c(C)c(C)cc(C)c3C)c3ccccc3c2)c1 [Example 9, 3-acetamido-5-[4-[(2,3,5,6-tetramethylphenyl)sulfonylamino]-2-naphthyl]benzoic acid]",0.4 µM

# Same assay, conditions: Keap1 kelch domain 20 nM, fluorescently labeled Nrf2 peptide 50 nM, read-out: IC50
row,IC50,SMILES
1,4.1 µM,"Cc1cc(C)c(C)c(S(=O)(=O)Nc2cc(-c3ccc(O)c(C(=O)O)c3)cc3ccccc23)c1C [Example 2, 2-hydroxy-5-[4-[(2,3,5,6-tetramethylphenyl)sulfonylamino]-2-naphthyl]benzoic acid]"
2,1.9 µM,"Cc1cc(C)c(C)c(S(=O)(=O)Nc2cc(-c3cncc(C(=O)O)c3)cc3ccccc23)c1C [Example 3, 5-[4-[(2,3,5,6-tetramethylphenyl)sulfonylamino]-2-naphthyl]pyridine-3-carboxylic acid]"
3,2.1 µM,"Cc1cc(C)c(C)c(S(=O)(=O)Nc2cc(-c3cc(F)cc(C(=O)O)c3)cc3ccccc23)c1C [Example 5, 3-fluoro-5-[4-[(2,3,5,6-tetramethylphenyl)sulfonylamino]-2-naphthyl]benzoic acid]"
4,5.6 µM,"Cc1cc(C)c(C)c(S(=O)(=O)Nc2cc(-c3cccc(C(=O)O)c3F)cc3ccccc23)c1C [Example 6, 2-fluoro-3-[4-[(2,3,5,6-tetramethylphenyl)sulfonylamino]-2-naphthyl]benzoic acid]"
5,3.3 µM,"Cc1cc(C)c(C)c(S(=O)(=O)Nc2cc(-c3cc(Cl)cc(C(=O)O)c3)cc3ccccc23)c1C [Example 7, 3-chloro-5-[4-[(2,3,5,6-tetramethylphenyl)sulfonylamino]-2-naphthyl]benzoic acid]"
6,1.6 µM,"Cc1cc(C)c(C)c(S(=O)(=O)Nc2cc(-c3ccc(Cl)c(C(=O)O)c3)cc3ccccc23)c1C [Example 8, 2-chloro-5-[4-[(2,3,5,6-tetramethylphenyl)sulfonylamino]-2-naphthyl]benzoic acid]"
7,1.8 µM,"Cc1cc(C)c(C)c(S(=O)(=O)Nc2cc(-c3ccc(F)c(C(=O)O)c3)cc3ccccc23)c1C [Example 10, 2-fluoro-5-[4-[(2,3,5,6-tetramethylphenyl)sulfonylamino]-2-naphthyl]benzoic acid]"
8,5.7 µM,"Cc1cc(C)c(C)c(S(=O)(=O)Nc2cc(-c3cc(C(=O)O)n(C)n3)cc3ccccc23)c1C [Example 11, 2-methyl-5-[4-[(2,3,5,6-tetramethylphenyl)sulfonylamino]-2-naphthyl]pyrazole-3-carboxylic acid]"
9,12 µM,"Cc1cc(C)c(C)c(S(=O)(=O)Nc2cc(-c3ccc(C(=O)O)s3)cc3ccccc23)c1C [Example 12, 5-[4-[(2,3,5,6-tetramethylphenyl)sulfonylamino]-2-naphthyl]thiophene-2-carboxylic acid]"

# Source: patent EP2998295A1, “Aryl substituted naphthyl sulfonamide derivatives as keap-1 modulators for the treatment of diabetes, obesity, dyslipidemia and related disorders” (SANOFI, priority 2014, dated 2016)
